What all share (type): functional, organism-based
For test [1], the species on record is Cavia porcellus. In words: Antagonism of the isoprenaline-induced positive chronotropic effect on the atria of guinea pig; Inactive at 1e-4 mol/L.
The species named for test [2] is Cavia porcellus. In words: The apparent pA2 value was measured for beta-2-adrenergic blocking activity on the trachea of guinea pig; Inactive at 3e-4.
For test [3], the species on record is Cavia porcellus. In words: Antagonism of the isoprenaline-induced positive chronotropic effect on the atria of guinea pig at 3e-4 M/l. The settings on record: read-out: pA2 (converted).

Here are results for two compounds from ChEMBL document CHEMBL1121606, “Synthesis and beta-adrenergic blocking activity of new aliphatic oxime ethers” (J Med Chem, 1980).

Activity calls are given as the source filed them. The rule behind the calls is not given here.

As to `CC(C)(C)NCC(O)CO` (stereo not drawn), the pA2 entry in the test listed under Cavia porcellus [1] is “inactive”.

Regarding `CC(C)NCC(O)CNC(C)C`, in the test listed under Cavia porcellus [2], the pA2 entry was “inactive”. The Kb in the test listed under Cavia porcellus [3] is 200 µM.
